The results in this text go back to ChEMBL document CHEMBL1201862, “PubChem BioAssay data set” (2004).

Some test systems named below: EKVX; T47D; DU-145; KM12; RXF 393; ACHN; SNB-75; SF-268; SK-MEL-28; A549; HCT-116; HOP-92; NCI/ADR-RES; SW-620; U-251; MCF7; MDA-MB-231; K562; SN12C.
Holding throughout (assay): DTP human tumour cell line panel, 48 h

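All cell lines were grown in 96-well plates and treated with compound for 48 hours. GI50 = concentration required for 50% inhibition of growth.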 Active and inactive are the calls of the source. No stated cut-off is given here; in the data, active = GI50 up to about 1.1 µM and inactive = higher. Peptide text beside a SMILES is read from it. * marks the point of attachment. Boc = CC(C)(C)OC(=O)*; OtBu = CC(C)(C)O*

Take `c1ccc(C2(c3cc4ccccc4[nH]3)OCCO2)nc1`: the GI50 with EKVX, with T47D, with DU-145, in the test with KM12, in the test on RXF 393 and with ACHN was > 100 µM (inactive) in each case. For the same molecule, the GI50 in the test on SNB-75, in the test on SF-268, in the test with SK-MEL-28, with A549, with HCT-116 and in the test on HOP-92 was > 100 µM (inactive) throughout. Besides, the GI50 with NCI/ADR-RES, with SW-620, with U-251, with MCF7 and with MDA-MB-231 was > 100 µM (inactive) each time.

Consider `COC(=O)[C@]1(c2cc3ccccc3[nH]2)CC2CN(C(=O)OCc3ccccc3)C1CC2=O` (stereo partly specified), for which the GI50 was 17.1 µM (inactive) in the test on EKVX; 22.5 µM (inactive) in the test on T47D; 38.8 µM (inactive) in the test with DU-145; 26.9 µM (inactive) with KM12; 18.7 µM (inactive) with K562; 16.2 µM (inactive) in the test with RXF 393. The GI50 in the test with ACHN was 26.6 µM (inactive); with SNB-75 it was 16.5 µM (inactive); in the test with SF-268 it was 27.4 µM (inactive); with SK-MEL-28, 39.3 µM (inactive); with A549 it was 23.3 µM (inactive); with HCT-116 it was 22.8 µM (inactive). Further, the GI50 in the test with HOP-92 was 20.4 µM (inactive); in the test on NCI/ADR-RES, 29.3 µM (inactive); in the test on SW-620 it was 29.6 µM (inactive); in the test on U-251, 15.8 µM (inactive); with MCF7, 16.7 µM (inactive); in the test with MDA-MB-231, 12.8 µM (inactive). Besides, the GI50 with SN12C was 17.4 µM (inactive).

Regarding `[O-][n+]1onc(-c2ccccc2)c1CN1CCOCC1`, the GI50 in the test on EKVX was > 100 µM (inactive); in the test on T47D it was 71.6 µM (inactive); in the test with DU-145, > 100 µM (inactive); in the test with KM12 it was > 100 µM (inactive); with K562, 51.2 µM (inactive); with RXF 393, > 100 µM (inactive). Also, the GI50 with ACHN, in the test on SNB-75, in the test on SF-268, in the test with SK-MEL-28, in the test with A549 and in the test on HCT-116 was > 100 µM (inactive) in each case. In addition, the GI50 in the test with HOP-92, in the test on NCI/ADR-RES, in the test with SW-620, in the test with U-251, in the test on MCF7 and in the test on MDA-MB-231 was > 100 µM (inactive) throughout. Further, in the test with SN12C, the GI50 is > 100 µM (inactive).

As to `CCOC(=O)/C(C(=O)Nc1cccc(Cl)c1)=C(/N)N1CCOCC1`, the GI50 in the test on EKVX, in the test on T47D, in the test on DU-145, in the test on KM12, with K562 and in the test with RXF 393 was > 100 µM (inactive) each time. In addition, the GI50 with ACHN, with SNB-75, with SF-268, in the test on SK-MEL-28, with A549 and with HCT-116 was > 100 µM (inactive) in each case. The GI50 with NCI/ADR-RES, with SW-620, in the test with U-251, with MCF7, in the test with MDA-MB-231 and in the test with SN12C was > 100 µM (inactive) throughout.

For `CC(C)(C)OC(=O)CC(NC(=O)OC(C)(C)C)C(=O)NC(Cc1ccccc1)C(N)=O` (stereo unspecified) (Boc-Asp(OtBu)-Phe-NH2; configuration not given here), the GI50 with EKVX, in the test with T47D, in the test on DU-145, with KM12, with K562 and in the test with RXF 393 was > 100 µM (inactive) in each case. Further, the GI50 in the test with ACHN, with SNB-75, with SF-268, with SK-MEL-28, with A549 and in the test on HCT-116 was > 100 µM (inactive) in each case. The GI50 was 19.8 µM (inactive) in the test with HOP-92; > 100 µM (inactive) in the test with NCI/ADR-RES; > 100 µM (inactive) in the test on SW-620; > 100 µM (inactive) with U-251; > 100 µM (inactive) with MCF7; > 100 µM (inactive) with MDA-MB-231. For the same molecule, in the test with SN12C, the GI50 is > 100 µM (inactive).

For `C=C(C)C1=CCC[C@]2(C1)N=C(OC)[C@@H](C(C)C)N=C2OC`, the GI50 in the test on EKVX is > 100 µM (inactive); with T47D it was > 100 µM (inactive); with DU-145 it was > 100 µM (inactive); in the test on KM12, > 100 µM (inactive); in the test with ACHN, > 100 µM (inactive); in the test with SNB-75, 51.2 µM (inactive). In addition, the GI50 was > 100 µM (inactive) in the test on SF-268; > 100 µM (inactive) in the test on SK-MEL-28; > 100 µM (inactive) in the test on A549; > 100 µM (inactive) in the test on HCT-116; 56 µM (inactive) in the test on HOP-92; > 100 µM (inactive) in the test with NCI/ADR-RES. For the same molecule, the GI50 was > 100 µM (inactive) with SW-620; > 100 µM (inactive) in the test with U-251; 92.7 µM (inactive) in the test on MCF7; > 100 µM (inactive) with MDA-MB-231; > 100 µM (inactive) with SN12C.

As for `[N-]=[N+]=NC1OC(=O)C(Cl)=C1N=P(c1ccccc1)(c1ccccc1)c1ccccc1` (stereo unspecified), the GI50 is > 10 µM (inactive) in the test on EKVX; > 10 µM (inactive) in the test on T47D; > 10 µM (inactive) in the test with DU-145; 7.85 µM (inactive) with KM12; 3.59 µM (inactive) in the test with K562; > 10 µM (inactive) in the test on RXF 393. In addition, the GI50 with ACHN is 8.63 µM (inactive); with SNB-75 it was 6.84 µM (inactive); with SF-268, > 10 µM (inactive); in the test on SK-MEL-28 it was > 10 µM (inactive); in the test with A549 it was > 10 µM (inactive); with HCT-116 it was 6.37 µM (inactive). The GI50 with NCI/ADR-RES was 5.51 µM (inactive); in the test with SW-620 it was > 10 µM (inactive); with U-251, > 10 µM (inactive); in the test with MCF7, 7.13 µM (inactive); in the test with MDA-MB-231, 6.44 µM (inactive); with SN12C, > 10 µM (inactive).

Take `COc1cc2cc(C(=O)N3CC(COS(C)(=O)=O)c4c3cc([N+](=O)[O-])c3ccccc43)[nH]c2c(OC)c1OC` (stereo unspecified): the GI50 is > 31.6 µM (inactive) in the test on EKVX; > 31.6 µM (inactive) with T47D; 0.553 µM (active) in the test with DU-145; 30.1 µM (inactive) in the test with KM12; > 100 µM (inactive) with K562; 18.3 µM (inactive) with RXF 393. Moreover, the GI50 with ACHN was 0.547 µM (active); with SNB-75 it was > 24 µM (inactive); with SF-268, 10.5 µM (inactive); with SK-MEL-28 it was > 31.6 µM (inactive); with A549, 2.81 µM (inactive); in the test with HCT-116 it was 1.24 µM (inactive). The GI50 in the test with HOP-92 is > 31.6 µM (inactive); with NCI/ADR-RES, 0.698 µM (active); in the test on SW-620, 1.79 µM (inactive); in the test with U-251, > 31.6 µM (inactive); with MCF7 it was 2 µM (inactive); in the test with MDA-MB-231 it was 60.4 µM (inactive). The GI50 with SN12C is 5.83 µM (inactive).
